Experimental data: patent US9597407B2, “Targeted antimicrobial moieties” (C3 Jian, Inc., priority 2009, dated 2017)

Assays:
microorganisms [1] = assay: Morphology, biofilm and growth disruption by peptides (Table 5); format: cell-based; set-up: key: A: Peptide aggregates; B: Less hyphal formation; Clumps; Diffuse clumps and small polyps; F: Diffuse growth; H: Thin; I: Growth inhibition; Microcolony formation; Rippled; Small polyps; Thick; W: Halo formation on top, microlonies on bottom
Excerpt: In certain embodiments peptides that induce alterations in phenotype or other biological activities can also be used as antimicrobial effector moieties.

microorganisms [2] = assay: Peptide activities: binding, antimicrobial, growth or phenotype altering (Table 8)
Excerpt: In certain embodiments, peptides described herein can have multiple activities. Thus for example, a peptide can have both binding/targeting activity and antimicrobial activity. Such peptides can be used, e.g., in a chimeric construct, for any or all of these properties. Thus, for example, a peptide designated “B” in Table 8 can be used as a targeting peptide. If it is also designated G or M it can also be used for antimicrobial activity.

Substance	Organism, effect (morphology, biofilm and growth disruption) (microorganisms [1]; S. pneumoniae)	Activities (microorganisms [2])	Organism, effect (morphology, biofilm and growth disruption) (microorganisms [1]; E. coli)	Organism, effect (morphology, biofilm and growth disruption) (microorganisms [1]; MRSA)	Organism, effect (morphology, biofilm and growth disruption) (microorganisms [1]; S. epidermidis)	Organism, effect (morphology, biofilm and growth disruption) (microorganisms [1]; E. faecalis)	Organism, effect (microorganisms [1]; MRSA)	Organism, effect (microorganisms [1]; S. epidermidis)	other results
PF-537 (LANDYYKKTKKSW; Peptide with targeting and/or antimicrobial activity)	S. pneumoniae (C)	G B	–	–	–	–	–	–	–
PF-478 (HLFILKSHLKPFPPFRYTYD; Peptide with targeting and/or antimicrobial activity)	S. pneumoniae (C)	G B	E. coli (C)	MRSA (H)	S. epidermidis (C)	–	–	–	–
PF-451 (MVNYIIGSYMLYREQNNNEALRKFDITLAM; Peptide with targeting and/or antimicrobial activity)	S. pneumoniae (C)	G B	E. coli (R)	MRSA (C)	S. epidermidis (C)	E. faecalis (C)	–	–	–
PF-030 (MTCHQAPTTTHQSNMA; Peptide with targeting and/or antimicrobial activity)	–	G B	–	–	–	–	MRSA (R)	S. epidermidis (D)	Organism, effect (microorganisms [1]; C. jeikeium): C. jeikeium (C); Organism, effect (microorganisms [1]; M. luteus): M. luteus (C)
PF-539 (SIILTKKKRRKIPLSIDSQIYKYTFKQ; Peptide with targeting and/or antimicrobial activity)	S. pneumoniae (A)	G B	–	MRSA (H)	–	–	–	–	–
PF-469 (YKVNYNNIDNHFNTLRH; Peptide with targeting and/or antimicrobial activity)	S. pneumoniae (D)	G B	E. coli (C)	MRSA (D)	S. epidermidis (D)	E. faecalis (D)	–	–	Organism, effect (morphology, biofilm and growth disruption) (microorganisms [1]; C. jejuni): C. jejuni (D)
PF-440 (MFIISPDLFNIAVILYILFFIHDILLLILS; Peptide with targeting and/or antimicrobial activity)	S. pneumoniae (R)	G B	E. coli (R)	MRSA (C)	S. epidermidis (C)	E. faecalis (C)	–	–	–
PF-056 (AEQLFGKQKQRGVDLFLNRLTIILSILFFVLMICISYLGM; Peptide with targeting and/or antimicrobial activity)	–	G B	–	–	–	–	MRSA (M)	S. epidermidis (D)	Organism, effect (microorganisms [1]; B. subtilis): B. subtilis (C); Organism, effect (microorganisms [1]; C. albicans): C. albicans (B); Organism, effect (microorganisms [1]; C. jeikeium): C. jeikeium (S); Organism, effect (microorganisms [1]; C. jejuni): C. jejuni (D); Organism, effect (microorganisms [1]; M. luteus): M. luteus (D); Organism, effect (microorganisms [1]; S. pneumoniae): S. pneumoniae (D)
PF-355 (WIAIGLLLYFSLKNQ; Peptide with targeting and/or antimicrobial activity)	–	G B	–	–	–	–	MRSA (A)	S. epidermidis (C)	Organism, effect (microorganisms [1]; C. jejuni): C. jejuni (D); Organism, effect (microorganisms [1]; E. coli): E. coli (C); Organism, effect (microorganisms [1]; E. faecalis): E. faecalis (D); Organism, effect (microorganisms [1]; P. aeruginosa): P. aeruginosa (A); Organism, effect (microorganisms [1]; S. pneumoniae): S. pneumoniae (D)
PF-450 (HRNLIILQRTIFI; Peptide with targeting and/or antimicrobial activity)	S. pneumoniae (C)	G B	–	MRSA (C)	–	E. faecalis (C)	–	–	–
PF-068 (SHLINNFGLSVINPSTPICLNFSPVFNLLTVYGITCN; Peptide with targeting and/or antimicrobial activity)	–	G B	–	–	–	–	MRSA (M)	S. epidermidis (M)	Organism, effect (microorganisms [1]; B. subtilis): B. subtilis (A); Organism, effect (microorganisms [1]; C. jeikeium): C. jeikeium (R); Organism, effect (microorganisms [1]; C. jejuni): C. jejuni (D); Organism, effect (microorganisms [1]; E. coli): E. coli (A); Organism, effect (microorganisms [1]; E. faecalis): E. faecalis (A); Organism, effect (microorganisms [1]; M. luteus): M. luteus (D); Organism, effect (microorganisms [1]; S. pneumoniae): S. pneumoniae (D)
PF-544 (FGEKQMRSWWKVHWFHP; Peptide with targeting and/or antimicrobial activity)	S. pneumoniae (M)	G B	–	MRSA (D)	S. epidermidis (D)	E. faecalis (R)	–	–	–
